The record followed here is patent US9422308B2, “Derivatives of docosahexaenoylethanolamide and uses thereof” (The United States of America, as represented by the …, priority 2012, dated 2016).

The target in one series is T1, FAAH (Homo sapiens, UniProt O00519).
T1 sequence (O00519 1-579): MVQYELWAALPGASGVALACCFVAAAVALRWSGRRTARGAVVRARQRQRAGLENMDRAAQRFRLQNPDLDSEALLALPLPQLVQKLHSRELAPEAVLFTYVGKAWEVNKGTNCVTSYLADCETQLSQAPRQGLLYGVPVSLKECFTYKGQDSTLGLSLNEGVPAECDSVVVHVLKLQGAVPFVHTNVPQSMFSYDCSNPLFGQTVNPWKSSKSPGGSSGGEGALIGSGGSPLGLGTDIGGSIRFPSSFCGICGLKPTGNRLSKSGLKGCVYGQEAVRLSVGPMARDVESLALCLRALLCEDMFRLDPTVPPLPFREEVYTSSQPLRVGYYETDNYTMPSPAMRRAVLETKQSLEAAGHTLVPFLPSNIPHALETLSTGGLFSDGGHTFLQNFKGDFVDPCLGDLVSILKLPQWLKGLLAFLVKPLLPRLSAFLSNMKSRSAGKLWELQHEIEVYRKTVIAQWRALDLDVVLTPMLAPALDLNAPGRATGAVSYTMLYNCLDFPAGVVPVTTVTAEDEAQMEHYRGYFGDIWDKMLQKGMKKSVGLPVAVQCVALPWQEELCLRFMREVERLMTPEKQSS
Description: time course FAAH enzyme assay. Type of series: in vitro ADME. To be noted: Conc. 1 mM, 0.1 U of FAAH, 37° C., pH=9.0. On the procedure:
Method development: The signal was optimized for each compound by ESI positive or negative ionization mode. A MS2 SIM scan was used to optimize the precursor ion and a product ion analysis was used to identify the best fragment for analysis and to optimize the collision energy.
Analysis: Samples were analyzed by LC/MS/MS using a API 3000 coupled with an Shimadzu HPLC and a CTC PAL chilled autosampler, all […] controlled by Analyst software (ABI). After separation on a C18 reverse phase HPLC column (Agilent, Waters, or equivalent). Mobile phase A was 0.1% AcOH in water. Mobile phase B was 0.1% AcOH in methanol. The flow rate was 0.6 mL/min. The gradient program included a 0.5 min hold at 30% B (the starting conditions), followed by a gradient to 100% B over 2.5 min and a 1 min hold at 100% B. The column was then returned to starting conditions and equilibrated over 1.25 min.
Assay Protocol: Assays were performed at 37° C. at pH=9.0 and involved the use of 0.1 U of FAAH. […] Reaction was terminated after an appropriate time by using protein precipitation treatment with acetonitrile (3:1, v/v).

The subject of the next series is cortical neurons. Description: neurite growth of embryonic mouse neurons (total neurite length/neuron, MAP2 immunostaining). The series is classed as cell-based. As to conditions: for effect with respect to cortical neurite growth as compared to DHA: FIGS. 1, 2; for dosage at which activity is exhibited as compared to DHA and synaptamide: dosages 10^-5 nM to 10 nM, FIG. 1. On the procedure: To obtain embryonic mouse neurons for analysis, pregnant female mice were killed by cervical dislocation after exposure to CO2 inhalation. Embryonic neurons were prepared from E18 or P0 mouse hippocampi or cortex and cultured as described previously (Calderon and Kim, J. Neurochem., 90(4):979-88 (2004), errata in J Neurochem., September; 90(6):1540 (2004)), with slight modification. Briefly, hippocampi or cotices were dissected and dissociated by a method using either 0.25% trypsin (Gibco Invitrogen Corporation, Grand Island, N.Y.) in Hank's balanced salt solution (HBSS) or papain (20-30 U/mL) in dissociation media containing cysteine at 37° C. for 15 min. After the dissociation solution was aspirated off, cells were washed with same volume of HBSS, suspended in neurobasal medium (Gibco) containing 2% B27 supplement (Gibco), 1% glutamine/glutamax mix (1:4) (Gibco), 100 U/ml penicillin (Gibco) and 100 μg/ml streptomycin (Gibco), and seeded on poly-D-lysine chambered slides (Lab-Tek, Naperville, Ill.) at a density of 30,000 cells/cm^2. On the second day after seeding, the cells were treated with fatty acids, synaptamide or one of Compounds 1-50 for 48 h. Docosahexaenoic acid (DHA) and oleic acid (OA) were complexed with fatty acid-free bovine serum albumin (BSA; Sigma, St Louis, Mo.) in the presence of α-tocopherol (Sigma) under an argon atmosphere and darkness to prevent oxidation of the fatty acids. The mixture was mixed with fresh Neurobasal medium containing B27 supplement, glutamine/glutamax mix and antibiotics. Final concentrations of α-tocopherol and BSA in the culture medium were 40 μM and 0.01%, respectively. Alternatively, DHA, OA, synaptamide, or one of Compounds 1-50 were dissolved in DMSO and applied directly together with α-tocopherol. In such case, the final concentration of DMSO is less than 0.005%. All stock solutions were aliquoted under argon and stored at −70° C.
Cells were fixed with […] (Sigma) in PBS (pH 7.4) for 30 min. After permeabilization with 0.1% Triton X-100 (Sigma), cells were blocked for 1 h at 37° C. with PBS containing 10% goat serum (Gibco), and then incubated with the primary antibody against microtubule-associated protein (MAP2, mouse monoclonal 1:250; Sigma). After washing with PBS, cells were incubated with the corresponding Cy2-, Cy3-conjugated secondary antibody (Jackson Immunoresearch Laboratories Inc., West Grove, Pa.). For the nuclear staining, 0.06% 4,6-Diamidino-2-Phenylindole (Sigma) was used. After immunostaining, images were collected using an inverted motorized 1×81 Olympus (Melville, N.Y.) and the neurite length was analyzed with Metamorph software (Molecular Devices Corporation, Downingtown, Pa.). To minimize bias, neurons were evaluated blindly without the knowledge of sample identity. Four to six fields/well were chosen at random and only non-clustered neurons were evaluated to ensure the precision of the measurements. From each well, over 100 neurons were evaluated at 20× magnification for total neurite length/neuron. The data were obtained from triplicate wells and the experiments were repeated at least three times.
FIG. 2 provides graphical results of the data shown in Table 2, expressed as total neurite length per neuron. FIG. 3 provides graphical results of these experiments for compounds 11-50 (having designations as provided in Table 1, above), expressed as relative neurite length as compared to untreated controls. FIG. 4 provides graphical results of these experiments for compounds 1-10 (having designations as provided in Table 1, above), as applied to hippocampal neurons.
An additional assay was performed in which Compounds (A8), 4(A10), and 7(A9) were applied at varying dosages (from 10^−5 nM to 10 nM; 10^−5 nM, 10^−4 nM, 10^−2 nM, 0.1 nM, 1 nM, and 10 nM) as compared to DHA, synaptamide, and oleic acid. Neurite growth was measured at each dosage. Results of this assay are provided at FIG. 1.

Setting [1] is: cortical neurons, 10 nM (FIG. 2), 48 h.

Structures are written as SMILES. Values joined by “and” are separate entries in the source; they are usually repeats but may differ in a detail not shown here. Identical values can stand only once.

With `CCCCC/C=C\C/C=C\C/C=C\C/C=C\CCCC(=O)NCCO` [AEA, anandamide], the “% remaining” value amounted to 74% on FAAH (0 min), 1% on FAAH (30 min) and 1% at FAAH (60 min).

In the case of `CC/C=C\C/C=C\C/C=C\C/C=C\C/C=C\C/C=C\CCC(=O)NCCCCO` [Compound 2, (4Z,7Z,10Z,13Z,16Z,19Z)—N-(4-hydroxybutyl)docosa-4,7,10,13,16,19-hexaenamide], the “Neurite Length/Neuron (mean)” value with cortical neurons (setting [1]) is 6.9 μm.

As for `CC/C=C\C/C=C\C/C=C\C/C=C\C/C=C\C/C=C\CCC(=O)NCCCO` [Compound 3, (4Z,7Z,10Z,13Z,16Z,19Z)—N-(3-hydroxypropyl)docosa-4,7,10,13,16,19-hexaenamide], in the series with cortical neurons (setting [1]), the “Neurite Length/Neuron (mean)” value is recorded as 3.8 μm.

Consider `CC/C=C\C/C=C\C/C=C\C/C=C\C/C=C\C/C=C\CCC(=O)NCCN1CCOCC1` [Compound 4, (4Z,7Z,10Z,13Z,16Z,19Z)—N-(2-morpholinoethyl)docosa-4,7,10,13,16,19-hexaenamide], for which the “Neurite Length/Neuron (mean)” value in the series with cortical neurons (setting [1]) is given as 20.8 μm. The “effect with respect to cortical neurite growth as compared to DHA” value in the series with cortical neurons (cortical neurons) is “superior effect”. Also, in the series on cortical neurons, the “dosage at which activity is exhibited as compared to DHA and synaptamide” value is given as “activity at significantly lower dosages”.

As to `CC/C=C\C/C=C\C/C=C\C/C=C\C/C=C\C/C=C\CCC(=O)NCCN(C)C` [Compound 5, (4Z,7Z,10Z,13Z,16Z,19Z)—N-(2-(dimethylamino)ethyl)docosa-4,7,10,13,16,19-hexaenamide], the “Neurite Length/Neuron (mean)” value in the series with cortical neurons (setting [1]) amounted to 6.7 μm.

Turning to `CC/C=C\C/C=C\C/C=C\C/C=C\C/C=C\C/C=C\CCC(=O)NCCOC` [Compound 6, (4Z,7Z,10Z,13Z,16Z,19Z)—N-(2-methoxyethyl)docosa-4,7,10,13,16,19-hexaenamide], in the series with cortical neurons (setting [1]), the “Neurite Length/Neuron (mean)” value was 9.1 μm.

As to `CC/C=C\C/C=C\C/C=C\C/C=C\C/C=C\C/C=C\CCC(=O)NCCc1ccccc1` [Compound 7, (4Z,7Z,10Z,13Z,16Z,19Z)—N-phenethyldocosa-4,7,10,13,16,19-hexaenamide], the “Neurite Length/Neuron (mean)” value with cortical neurons (setting [1]) was found to be 41.8 μm. In the series with cortical neurons (cortical neurons), the “effect with respect to cortical neurite growth as compared to DHA” value is “superior effect”. Besides, the “dosage at which activity is exhibited as compared to DHA and synaptamide” value with cortical neurons is “activity at significantly lower dosages”.

`CC/C=C\C/C=C\C/C=C\C/C=C\C/C=C\C/C=C\CCC(=O)NC(C)(C)CO` [Compound 8, (4Z,7Z,10Z,13Z,16Z,19Z)—N-(1-hydroxy-2-methylpropan-2-yl)docosa-4,7,10,13,16,19-hexaenamide]: the “Neurite Length/Neuron (mean)” value with cortical neurons (setting [1]) was found to be 4.5 μm.

On to `CC/C=C\C/C=C\C/C=C\C/C=C\C/C=C\C/C=C\CCC(=O)N[C@@H](C)CO` [Compound 9, (4Z,7Z,10Z,13Z,16Z,19Z)—N—((S)-1-hydroxypropan-2-yl)docosa-4,7,10,13,16,19-hexaenamide], for which, in the series on cortical neurons (setting [1]), the “Neurite Length/Neuron (mean)” value was 9.6 μm.

Consider `CC/C=C\C/C=C\C/C=C\C/C=C\C/C=C\C/C=C\CCC(=O)N[C@H](C)CO` [Compound 10, (4Z,7Z,10Z,13Z,16Z,19Z)—N—((R)-1-hydroxypropan-2-yl)docosa-4,7,10,13,16,19-hexaenamide], for which the “Neurite Length/Neuron (mean)” value in the series on cortical neurons (setting [1]) is 9.5 μm.

With `CC/C=C\C/C=C\C/C=C\C/C=C\C/C=C\C/C=C\CCC(=O)O` [DHA, Docosahexaenoic acid, reference compound], the “Neurite Length/Neuron (mean)” value in the series on cortical neurons (cortical neurons, DHA 100 nM (FIG. 2), 48 h) is listed as 14.5 μm.

Regarding `CC/C=C\C/C=C\C/C=C\C/C=C\C/C=C\C/C=C\CCC(=O)NCCO` [Synaptamide, Docosahexaenoylethanolamide], the “Neurite Length/Neuron (mean)” value in the series with cortical neurons (setting [1]) stood at 29.3 μm. Further, in the series with cortical neurons (cortical neurons, 10 nM (FIG. 2), 48 h, three individual values), the “Neurite Length/Neuron, individual values” was 33.1 μm and 29.2 μm and 25.5 μm. For the same molecule, the figures for the “% remaining” value on FAAH (0 min), at FAAH (30 min) and on FAAH (60 min) were 100%, 5% and 1%, respectively.
